Assays:
[1] = biological target: TSPO protein separated and purified from rat heart (Rattus norvegicus (Rat), UniProt P16257); assay: TSPO and radioligand (3H-PK11195) competitive binding test; conditions: for Inhibition rate (%): n = 6 times
Method: In the present test, TSPO protein separated and purified from rat heart was used as screening target, via competitive binding test with radioligand (^3H-PK11195), to screen TSPO ligand compounds.
Wister rats, 220-260 g, female and male, were sacrificed by decapitation and the rat heart were rapidly separated, weighed and to which homogenized in 10 times volume of Tris-HCl buffer solution (50 mM Tris-HCl, 5 mM MgCl2, 1 mM EDTA, 0.5% (W/V) BSA, 1 mM PMSF, 3 μg/ml proteinase inhibitor, 0.1% NaN3, 0.32M sucrose, pH 7.4) at 15,000 rpm for 30 s, total 5 times. The homogenate was centrifuged under 1000×g for 10 minutes and the supernatant was then centrifuged under 30000×g for 20 minutes. The precipitate was collected, and resuspended with 10 times volume of Tris-HCl buffer solution (pH 7.4) relative to the original weight, then centrifuged under 30000×g for 20 minutes. The precipitate was washed with the same buffer solution, centrifuged under 30000×g for 20 minutes and the precipitate was suspended with the above buffer solution. After sub-packaged (the whole operation procedures were performed under ice bath), the product was stored at −80° C.
3) Competitive Binding Test of Drug to the Receptor (Rat Heart TSPO) and Radioligand (^3H-PK11195):
(1) tubes were placed in reaction condition of 30° C.
(2) all tubes were added with 20 μg of receptor protein in order;
(3) the test tubes were added in order with 20 μL of drugs in certain concentrations;
(4) the non-specific binding tubes were added with 20 μL of non-tagged ligand (PK11195), the final concentration of the non-tagged ligand was 0.1 mM, pre-reacted for 30 min;
(5) all tubes were added in order with 25 μL ^3H-PK11195, the final concentration of the labeled ligand was 1.5 nM;
(6) Tris-HCl Buffer pH7.4 was used to complement the reaction volumes of all tubes to reach 200 μL;
(7) the reaction was performed under 30° C. reaction condition for 1 h;
(8) Then samples were applied to 49-type glass fibre filter, vacuum suction filtered, then washed with 2 ml ice-cold Tris-HCl buffer solution (50 mM Tris-HCl buffer solution, 1 mM EDTA, 5 mM MgCl2, 1 mM PMSF, 0.1% NaN3, 3 μg/ml proteinase inhibitor, pH 7.4). The filter was dried and placed in a scintillation vial with 1 ml of scintillation fluid. The radio-activity was measured by a scintillation counter.

[2] = 9 gradient concentrations, plotting and fitting

SMILES: CCN(Cc1ccncc1)C(=O)Cc1c(-c2ccc(Cl)cc2)nc2cc(C)ccn12.Cl [Compound 4, N-ethyl-N-(4-pyridinylmethyl)-2-(4-chlorophenyl)-7-methylimidazo[1,2-a]pyridine-3-acetamide.hydrochloride]
- Inhibition rate (%) ([1]; 1 × 10^−5M): 100%
- Inhibition rate (%) ([1]; 1 × 10^−7M): 50%
- Inhibition rate (%) ([1]; 1 × 10^−9M): 0%
- melting point: 245 to 247 °C

SMILES: CCN(Cc1cccnc1)C(=O)Cc1c(-c2ccc(Cl)cc2)nc2cc(C)ccn12.Cl [Compound 3, N-ethyl-N-(3-pyridinylmethyl)-2-(4-chlorophenyl)-7-methylimidazo[1,2-a]pyridine-3-acetamide.hydrochloride]
- Inhibition rate (%) ([1]; 1 × 10^−5M): 100%
- Inhibition rate (%) ([1]; 1 × 10^−7M): 25%
- Inhibition rate (%) ([1]; 1 × 10^−9M): 0%
- melting point: 236 to 238 °C

SMILES: CCN(Cc1ccccc1)C(=O)Cc1c(-c2ccc(Cl)cc2)nc2cc(C)ccn12 [Compound 1, N-benzyl-N-ethyl-2-(4-chlorophenyl)-7-methylimidazo[1,2-a]pyridine-3-acetamide]
- Inhibition rate (%) ([1]; 1 × 10^−5M): 100%
- Inhibition rate (%) ([1]; 1 × 10^−7M): 87%
- Inhibition rate (%) ([1]; 1 × 10^−9M): 12%
- melting point: 192 to 193 °C

SMILES: CCN(Cc1ccccn1)C(=O)Cc1c(-c2ccc(Cl)cc2)nc2cc(C)ccn12.Cl [Compound 2, N-ethyl-N-(2-pyridinylmethyl)-2-(4-chlorophenyl)-7-methylimidazo[1,2-a]pyridine-3-acetamide.hydrochloride]
- Inhibition rate (%) ([1]; 1 × 10^−5M): 100%
- Inhibition rate (%) ([1]; 1 × 10^−7M): 59%
- Inhibition rate (%) ([1]; 1 × 10^−9M): 0%
- melting point: 178 to 180 °C

SMILES: CCN(Cc1cccnc1)C(=O)Cc1c(-c2ccc(C)cc2)nc2cc(C)ccn12.Cl [Compound 15, N-ethyl-N-(3-pyridinylmethyl)-2-(4-methylphenyl)-7-methylimidazo[1,2-a]pyridine-3-acetamide.hydrochloride]
- Inhibition rate (%) ([1]; 1 × 10^−5M): 90%
- Inhibition rate (%) ([1]; 1 × 10^−7M): 15%
- Inhibition rate (%) ([1]; 1 × 10^−9M): 0%
- melting point: 251 to 253 °C

SMILES: COCCN(Cc1ccccn1)C(=O)Cc1c(-c2ccc(C)cc2)nc2cc(C)ccn12.Cl [Compound 17, N-(2-methoxyethyl)-N-(2-pyridinylmethyl)-2-(4-methylphenyl)-7-methylimidazo[1,2-a]pyridine-3-acetamide.hydrochloride]
- Inhibition rate (%) ([1]; 1 × 10^−5M): 83%
- Inhibition rate (%) ([1]; 1 × 10^−7M): 9%
- Inhibition rate (%) ([1]; 1 × 10^−9M): 0%
- melting point: 239 to 240 °C

SMILES: CCN(Cc1cccnc1)C(=O)Cc1c(-c2ccc(OC)cc2)nc2cc(C)ccn12.Cl [Compound 21, N-ethyl-N-(3-pyridinylmethyl)-2-(4-methoxyphenyl)-7-methylimidazo[1,2-a]pyridine-3-acetamide.hydrochloride]
- Inhibition rate (%) ([1]; 1 × 10^−5M): 43%
- Inhibition rate (%) ([1]; 1 × 10^−7M): 11%
- Inhibition rate (%) ([1]; 1 × 10^−9M): 0%
- melting point: 230 to 232 °C

SMILES: CCN(Cc1ccccc1)C(=O)Cc1c(-c2ccc(Cl)c(Cl)c2)nc2cc(C)ccn12 [Compound 7, N-benzyl-N-ethyl-2-(3,4-dichlorophenyl)-7-methylimidazo[1,2-a]pyridine-3-acetamide]
- Inhibition rate (%) ([1]; 1 × 10^−5M): 99%
- Inhibition rate (%) ([1]; 1 × 10^−7M): 72%
- Inhibition rate (%) ([1]; 1 × 10^−9M): 10%
- IC50 [1, 2]: 0.116 µM
- Ki [1, 2]: 0.0492 µM
- melting point: 180 to 182 °C

SMILES: CCN(Cc1ccccc1)C(=O)Cc1c(-c2ccc(OC)cc2)nc2cc(C)ccn12 [Compound 19, N-benzyl-N-ethyl-2-(4-methoxyphenyl)-7-methylimidazo[1,2-a]pyridine-3-acetamide]
- Inhibition rate (%) ([1]; 1 × 10^−5M): 94%
- Inhibition rate (%) ([1]; 1 × 10^−7M): 76%
- Inhibition rate (%) ([1]; 1 × 10^−9M): 0%
- melting point: 175 to 178 °C

SMILES: COCCN(CCN1CCOCC1)C(=O)Cc1c(-c2ccc(C)cc2)nc2cc(C)ccn12.Cl [Compound 25, N-(2-methoxyethyl)-N-(2-morpholinylethyl)-2-(4-methylphenyl)-7-methylimidazo[1,2-a]pyridine-3-acetamide.hydrochloride]
- Inhibition rate (%) ([1]; 1 × 10^−5M): 31%
- Inhibition rate (%) ([1]; 1 × 10^−7M): 0%
- Inhibition rate (%) ([1]; 1 × 10^−9M): 0%
- melting point: 165 to 167 °C

SMILES: COCCN(Cc1ccccn1)C(=O)Cc1c(-c2ccc(OC)cc2)nc2cc(C)ccn12.Cl [Compound 23, N-(2-methoxyethyl)-N-(2-pyridinylmethyl)-2-(4-methoxyphenyl)-7-methylimidazo[1,2-a]pyridine-3-acetamide.hydrochloride]
- Inhibition rate (%) ([1]; 1 × 10^−5M): 85%
- Inhibition rate (%) ([1]; 1 × 10^−7M): 2%
- Inhibition rate (%) ([1]; 1 × 10^−9M): 3%
- melting point: 214 to 216 °C (dec.)

SMILES: COCCN(Cc1cccnc1)C(=O)Cc1c(-c2ccc(Cl)cc2)nc2cc(C)ccn12.Cl [Compound 6, N-(2-methoxyethyl)-N-(3-pyridinylmethyl)-2-(4-chlorophenyl)-7-methylimidazo[1,2-a]pyridine-3-acetamide.hydrochloride]
- Inhibition rate (%) ([1]; 1 × 10^−5M): 70%
- Inhibition rate (%) ([1]; 1 × 10^−7M): 0%
- Inhibition rate (%) ([1]; 1 × 10^−9M): 0%
- melting point: 234 to 235 °C

SMILES: COCCN(Cc1cccnc1)C(=O)Cc1c(-c2ccc(Cl)c(Cl)c2)nc2cc(C)ccn12.Cl [Compound 12, N-(2-methoxyethyl)-N-(3-pyridinylmethyl)-2-(3,4-dichlorophenyl)-7-methylimidazo[1,2-a]pyridine-3-acetamide.hydrochloride]
- Inhibition rate (%) ([1]; 1 × 10^−5M): 80%
- Inhibition rate (%) ([1]; 1 × 10^−7M): 20%
- Inhibition rate (%) ([1]; 1 × 10^−9M): 0%
- melting point: 235 to 237 °C

SMILES: CCN(Cc1ccccn1)C(=O)Cc1c(-c2ccc(OC)cc2)nc2cc(C)ccn12.Cl [Compound 20, N-ethyl-N-(2-pyridinylmethyl)-2-(4-methoxyphenyl)-7-methylimidazo[1,2-a]pyridine-3-acetamide.hydrochloride]
- Inhibition rate (%) ([1]; 1 × 10^−5M): 61%
- Inhibition rate (%) ([1]; 1 × 10^−7M): 63%
- Inhibition rate (%) ([1]; 1 × 10^−9M): 0%
- melting point: 228 to 230 °C

SMILES: CCN(Cc1ccncc1)C(=O)Cc1c(-c2ccc(OC)cc2)nc2cc(C)ccn12.Cl [Compound 22, N-ethyl-N-(4-pyridinylmethyl)-2-(4-methoxyphenyl)-7-methylimidazo[1,2-a]pyridine-3-acetamide.hydrochloride]
- Inhibition rate (%) ([1]; 1 × 10^−5M): 63%
- Inhibition rate (%) ([1]; 1 × 10^−7M): 9%
- Inhibition rate (%) ([1]; 1 × 10^−9M): 4%
- melting point: 239 to 242 °C

SMILES: CCN(Cc1cccnc1)C(=O)Cc1c(-c2ccc(Cl)c(Cl)c2)nc2cc(C)ccn12.Cl [Compound 9, N-ethyl-N-(3-pyridinylmethyl)-2-(3,4-dichlorophenyl)-7-methylimidazo[1,2-a]pyridine-3-acetamide.hydrochloride]
- Inhibition rate (%) ([1]; 1 × 10^−5M): 86%
- Inhibition rate (%) ([1]; 1 × 10^−7M): 8%
- Inhibition rate (%) ([1]; 1 × 10^−9M): 0%
- melting point: 245 to 248 °C

SMILES: COCCN(CCN1CCOCC1)C(=O)Cc1c(-c2ccc(C)cc2)nc2ccc(C)cn12.Cl [Compound 26, N-(2-methoxyethyl)-N-(2-morpholinylethyl)-2-(4-methylphenyl)-6-methylimidazo[1,2-a]pyridine-3-acetamide.hydrochloride]
- Inhibition rate (%) ([1]; 1 × 10^−5M): 48%
- Inhibition rate (%) ([1]; 1 × 10^−7M): 1%
- Inhibition rate (%) ([1]; 1 × 10^−9M): 0%
- melting point: 245 to 247 °C

SMILES: CN1C(=O)CN=C(c2ccc(Cl)cc2)c2cc(Cl)ccc21 [Compound R05-4864, 4′-chlorodiazepam, reference compound]
- Inhibition rate (%) ([1]; 1 × 10^−5M): 100%
- Inhibition rate (%) ([1]; 1 × 10^−7M): 82%
- Inhibition rate (%) ([1]; 1 × 10^−9M): 57%

From patent publication US8980887B2, “2-aryl imidazo[1,2-a]pyridine-3-acetamide derivatives, preparation methods and uses thereof” (Institute of Pharmacology, priority 2010, dated 2015)
